From the supplement of paper PMC10307832

Columns and labels:
Test in all cases: relative viability (nuclei count vs DMSO), 5 days (fraction); higher = more cells survive
Dabrafenib + Crizotinib = compound: CC(C)(C)c1nc(-c2cccc(NS(=O)(=O)c3c(F)cccc3F)c2F)c(-c2ccnc(N)n2)s1 [Dabrafenib] + C[C@@H](Oc1cc(-c2cnn(C3CCNCC3)c2)cnc1N)c1c(Cl)ccc(F)c1Cl [Crizotinib] (partner 1 µM)
In short: (§1)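 Relative viability divides the nuclei count in treated wells by that in vehicle wells. Lung cancer cell lines were seeded in 1536-well plates, dosed by pin tool the next day, and fixed and stained after 5 days in one step with final 0.05% Triton X-100, 1% formaldehyde and 1 ug/ml Hoechst. Dosing was a single drug or a fixed anchor-drug dose plus five library-drug doses (not always all listed) in √10 steps, and values are medians of duplicate plates imaged at 4×.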

VX-702 + Pictilisib = compound: NC(=O)c1ccc(N(C(N)=O)c2c(F)cccc2F)nc1-c1ccc(F)cc1F [VX-702] + CS(=O)(=O)N1CCN(Cc2cc3nc(-c4cccc5[nH]ncc45)nc(N4CCOCC4)c3s2)CC1 [Pictilisib] (partner 1 µM)
In short: as §1

Dabrafenib + Foretinib = compound: CC(C)(C)c1nc(-c2cccc(NS(=O)(=O)c3c(F)cccc3F)c2F)c(-c2ccnc(N)n2)s1 [Dabrafenib] + COc1cc2c(Oc3ccc(NC(=O)C4(C(=O)Nc5ccc(F)cc5)CC4)cc3F)ccnc2cc1OCCCN1CCOCC1 [Foretinib] (partner 0.25 µM)
In short: as §1

Dabrafenib + Linsitinib = compound: CC(C)(C)c1nc(-c2cccc(NS(=O)(=O)c3c(F)cccc3F)c2F)c(-c2ccnc(N)n2)s1 [Dabrafenib] + C[C@]1(O)C[C@@H](c2nc(-c3ccc4ccc(-c5ccccc5)nc4c3)c3c(N)nccn32)C1 [Linsitinib] (partner 1 µM)
In short: as §1

| Cell Line | relative viability (Dabrafenib + Crizotinib; first compound 0.003 µM) | relative viability (Dabrafenib + Crizotinib; first compound 0.009487 µM) | relative viability (Dabrafenib + Crizotinib; first compound 0.03 µM) | relative viability (Dabrafenib + Crizotinib; first compound 0.09487 µM) | relative viability (Dabrafenib + Crizotinib; first compound 0.3 µM) | relative viability (VX-702 + Pictilisib; first compound 0.02 µM) | relative viability (VX-702 + Pictilisib; first compound 0.2 µM) | relative viability (VX-702 + Pictilisib; first compound 0.6325 µM) | relative viability (VX-702 + Pictilisib; first compound 2 µM) | relative viability (Dabrafenib + Foretinib; first compound 0.009487 µM) | relative viability (Dabrafenib + Foretinib; first compound 0.03 µM) | relative viability (Dabrafenib + Foretinib; first compound 0.09487 µM) | relative viability (Dabrafenib + Foretinib; first compound 0.3 µM) | relative viability (Dabrafenib + Linsitinib; first compound 0.003 µM) | relative viability (Dabrafenib + Linsitinib; first compound 0.009487 µM) | relative viability (Dabrafenib + Linsitinib; first compound 0.03 µM) | relative viability (Dabrafenib + Linsitinib; first compound 0.09487 µM) | relative viability (Dabrafenib + Linsitinib; first compound 0.3 µM) | relative viability (Dabrafenib + Foretinib; first compound 0.003 µM) |
| --- | --- | --- | --- | --- | --- | --- | --- | --- | --- | --- | --- | --- | --- | --- | --- | --- | --- | --- | --- |
| SK-LU-1 | 0.742 | 0.989 | 0.769 | 0.778 | 0.891 | 0.647 | 0.501 | 0.563 | 0.645 | 0.848 | 0.633 | 0.64 | 0.757 | 0.799 | 1 | 0.813 | 0.968 | 0.833 |  |
| SK-MES-1 | 0.919 | 0.985 | 1.04 | 0.912 | 0.962 | 0.342 | 0.293 | 0.364 | 0.313 | 0.905 | 1 | 0.796 | 0.995 | 1.07 | 1.04 | 1.06 | 1.04 | 1.12 | 0.653 |
| SW 1573 | 0.802 | 0.94 | 0.697 | 0.755 | 0.782 | 0.439 | 0.388 | 0.361 | 0.482 | 0.992 | 0.806 | 1.01 | 1.05 | 0.827 | 0.844 | 0.722 | 0.792 | 0.821 | 0.757 |
| UMC-11 | 0.772 | 0.636 | 0.591 | 0.572 | 0.596 | 0.696 | 0.762 | 0.582 | 0.813 | 1.12 | 1.06 | 0.984 | 1.13 | 1.12 | 1.09 | 0.985 | 0.982 | 1.03 | 1.13 |
